Several values for one entry are separate records, joined by “and”; a condition that tells them apart may be missing. Equal values may be shown once.
Tested on: human telomeric DNA G-quadruplex
Assay: ESI-TOF-MS G-quadruplex binding assay
Conditions: for Relative binding affinity (RBA): negative ESI-TOF-MS, 10 uM human telomeric DNA (27 nt) and 10 uM compound in 10 mM ammonium acetate, RBA = sum of complexes peaks areas / sum of G-quadruplex DNA peaks areas, means ± SD
Method: UV data were recorded using a Beckman DU 800 UV/vis spectrophotometer. HRESIMS were recorded on an Agilent 6230 ESI-TOF mass spectrometer. NMR spectra were obtained from Bruker Ascend™ 600 spectrometer equipped with a cyro platform. Silica gel (Devisil®, 40˜63 micron) was used for column chromatography. Silica gel plates (Merck, DC Kieselgel 60 F254) was used for TLC analysis. High-performance liquid chromatography (HPLC) was carried out on Agilent 1100, Agilent 1200 and Waters 1525-2489 apparatus with a semi-preparative column (Waters, XBridge® Prep C18, 5 μm, 250×10 mm). 27 nt human telomeric DNA (M monoisotopic=8492.4 Da, Invitrogen) was used for G-quadruplex binding assay, which was the same as the one applied in Bai, L. P. et al. PloS One 2013, 8, e53962. The G-quadruplex binding analysis was conducted on a Bruker maXis impact mass spectrometer equipped with a kdScientific syringe pump (Holliston, Mass., USA). Solvents for HPLC separation analysis were HPLC grade.
Electrospray ionization time-of-flight mass spectrometry (ESI-TOF-MS) experiments were conducted on a Bruker maXis impact mass spectrometer in the negative mode (Bai, L. P., Plos One, 2013, 8, e53962; Bai, L. P., Sci. Rep. 2014, 4, 6767). The ESI source parameters were set as follows: end plate offset voltage of 500 V, capillary voltage of 3000 V, nebulizer of 1.0 bar, dry gas flow of 4.0 L/min at 160° C. The flow rate of sample injection into the mass spectrometer was set at 3 uL/min by using a kdScientific syringe pump. Each mass spectrum was obtained by an average of at least 30 scans. The mixture of a final concentration of 10 uM nucleic acid, i.e. human telomeric DNA (27 nt) (M=8496.6 Da), and 10 uM phenanthroindolizidine alkaloid in 10 mM ammonium acetate was directly injected into mass spectrometer. Data were obtained from three parallel samples of nucleic acid-drug complex solution, and then analyzed with the software of Compass DataAnalysis.
ESI-TOF-MS was utilized to investigate the non-covalent binding capacity of compounds 1 to 7, i.e. compounds of Formulas (2) to (8) with human telomeric DNA G-quadruplex formed by the human telomeric sequence. The human telomeric sequence is known and disclosed in Bai, L. P. et al. PloS One 2013, 8, e53962. 13aS-tylophorine compound 8, i.e. compound of Formula (9):
[drawing 17] and reference G-quadruplex binder sanguinarine were used as control (Bai, L. P., Anal. Bioanal. Chem., 2008, 392, 709; Bai, L. P., Bioorg. Med. Chem., 2006, 14, 5439). […] The relative binding affinities (RBA) of tested compounds were calculated to evaluate their binding capacities to human telomeric DNA G-quadruplex using the equation: RBA=Σcomplexes peaks areas/ΣG-quadruplex DNA peaks areas

With COc1cc2c3c(c4cc(OC)c(OC)cc4c2cc1OC)CN1CCC[C@H]1C3 [compound 8, 13aS-tylophorine, reference compound] the “Relative binding affinity (RBA)” value was 0.168 and 0.168 ± 0.007.
For COc1ccc2c(c1)c1cc(OC)c(OC)cc1c1c[n+]3c(cc21)CCC3 [compound 7, tylophoridicine D], the “Relative binding affinity (RBA)” value was 0.619 and 0.619 ± 0.016 and the “RBA value, times higher than that of 2-methoxylated/hydroxylated analogues compound 5 or 1” value (ratio of RBA values) was “at least 2 times”.
With COc1cc2c(cc1O)c1cc(OC)c(OC)cc1c1cc3[n+](cc21)CCC3 [compound 4, 6-demethyldehydrotylophorine] the “Relative binding affinity (RBA)” value was 0.238 and 0.238 ± 0.010.
With COc1cc2c3cc(OC)c(OC)cc3c3c[n+]4c(cc3c2cc1OC)CCC4 [compound 5, dehydrotylophorine] the “Relative binding affinity (RBA)” value was 0.290 and 0.290 ± 0.017.
In the case of COc1ccc2c(c1)c1cc(O)c(OC)cc1c1c[n+]3c(cc21)CCC3 [compound 6, an hydrodehydrotylophorinidine], the “Relative binding affinity (RBA)” value is reported as 0.437 and 0.437 ± 0.019 and the “potency in RBA value, times that of 3-demethyl analogue compound 2” value (ratio of RBA values) is reported as “at least 3 times”.
COc1cc2c(cc1O)c1cc3[n+](cc1c1cc(OC)c(OC)cc21)CCC3 [compound 1, 2-demethyldehydrotylophorine] was tested, and the “Relative binding affinity (RBA)” value was 0.265 and 0.265 ± 0.008.
COc1cc2c(cc1O)c1cc(OC)c(O)cc1c1cc3[n+](cc21)CCC3 [compound 3, 2-hydroxylanhydrodehydrotylophorinidine] was tested, and the “Relative binding affinity (RBA)” value was 0.189 and 0.189 ± 0.002.
In the case of COc1cc2c(cc1O)c1cc(O)ccc1c1cc3[n+](cc21)CCC3 [compound 2, 3-demethylanhydrodehydrotylophorinidine], the “Relative binding affinity (RBA)” value is reported as 0.122 and 0.122 ± 0.007.
